Measured values published in US20190307811A1, “METHOD FOR TREATING AIRWAYS DISEASE” (HUDSON INSTITUTE OF MEDICAL RESEARCH, priority 2016, published 2019).

Key:
[1] = tested on: bleomycin (BLM)-induced model of pulmonary fibrosis; assay: Lung inflammation score, bleomycin-induced pulmonary fibrosis model; format: in vivo; conditions: BLM-injured mice, treatment days 22-28
Protocol: (§1) The following is relevant to Example 10. A bleomycin (BLM)-induced model of pulmonary fibrosis was established in mice (n=49). Mice were intranasally (IN) administered with 20 μg of bleomycin sulphate (Hospira, Melbourne, Victoria, Australia) in 50 μl of saline (equivalent to 400 μg/ml; 25 μl per nare) on days 0 and 7. For control mice (n=7), however, instead of BLM, they were given IN administration (50 μL per mouse) of 0.9% w/v saline on days 0 and 7. All mice were then left untreated for a further two weeks (until day 21).
(§2) On day 22 (1 day following completion of induction of the BLM-induced pulmonary fibrosis model), mice were lightly anaesthetized with isoflurane (Baxter Health Care, NSW, Australia) and held in a semi-supine position while IN administration of the appropriate treatment took place. The following treatments were administered daily or once-weekly to mice, from days 22-28.
(§3) BLM alone (injury control group): a-sub-group of mice (n=7) received 50 μL of phosphate buffered saline (PBS; the vehicle for Pirfenidone, AECs and AEC-derived exosomes; 25 μL per nare) daily, using an automatic pipette from days 22-28,
(§4) Pirfenidone: a separate sub-group of mice (n=7) received 1 mg of Pirfenidone (Tocris Bioscience, Noble Park, Victoria, Australia) per day (equivalent to 50 mg/kg/day) by twice daily oral gavage, from days 22-28. […]

[2] = tested on: bleomycin (BLM)-induced model of pulmonary fibrosis; assay: Interstitial fibrosis, bleomycin-induced pulmonary fibrosis model; format: in vivo; conditions: BLM-injured mice, treatment days 22-28
Protocol: as §1, §2, §3, §4

[3] = tested on: bleomycin (BLM)-induced model of pulmonary fibrosis; assay: Subepithelial ECM/collagen deposition, bleomycin-induced pulmonary fibrosis model; format: in vivo; conditions: BLM-injured mice, treatment days 22-28
Protocol: as §1, §2, §3, §4

[4] = tested on: chronic model of ovalbumin (OVA)-induced AAD; assay: Subepithelial collagen deposition (Masson's trichrome), chronic OVA-induced AAD model; format: in vivo, Balb/c mice; conditions: OVA-treated mice; OVA alone 26.26±1.37, saline 8.07±0.58
Protocol: (§5) To assess the individual vs combined effects of MSCs, AECs and RLX (serelaxin) in chronic AAD, a chronic model of ovalbumin (OVA)-induced AAD was established in mice (n=36). Mice were sensitized with two i.p. injections of 10 μg of Grade V chicken egg OVA (Sigma-Aldrich, Mo., USA) and 400 μg of aluminium potassium sulphate adjuvant (alum; AJAX Chemicals, NSW, Australia) in 500 μl of 0.9% w/v normal saline solution (Baxter Health Care, NSW, Australia) on day 0 and day 14. They were then challenged by whole body inhalation exposure (nebulization) to aerosolized OVA (2.5% w/v in 0.9% w/v normal saline) for thirty minutes, three times a week, between days 21 and 63, using an ultrasonic nebulizer (Omron NE-U07; Omron, Kyoto, Japan). Control mice (n=6) were given i.p injections of 500 μl 0.9% w/v saline and nebulized with 0.9% w/v saline instead of OVA.
(§6) On day 64 (1 day following completion of induction of the chronic AAD model), mice were lightly anaesthetized with isoflurane (Baxter Health Care, NSW, Australia) and held in a semisupine position while intranasal administration of the appropriate treatment took place. […]

[5] = tested on: chronic model of ovalbumin (OVA)-induced AAD; assay: Peri-bronchial inflammation score, chronic OVA-induced AAD model; format: in vivo, Balb/c mice; conditions: scale 0 to 4; OVA-treated mice, intranasal treatment days 64-77; OVA alone 1.70±0.60, saline 0.15±0.40
Protocol: Six-to-eight week-old female Balb/c mice were obtained from Monash Animal Services (Monash University, Clayton, Victoria, Australia) and housed under a controlled environment, on a 12 hour light/12 hour dark lighting cycle with free access to water and lab chow (Barastock Stockfeeds, Pakenham, Victoria, Australia). All mice were provided an acclimatization period of 4-5 days before any experimentation.
as §5, with “OVA. […]” for “OVA.”

goblet cells = assay: Goblet cell metaplasia (ABPAS staining), chronic OVA-induced AAD model; format: in vivo, Balb/c mice; conditions: OVA-treated mice; OVA alone 4.83±0.20, saline 1.62±0.32
Protocol: as §5, §6

[6] = tested on: chronic model of ovalbumin (OVA)-induced AAD; assay: Hydroxyproline assay of total lung collagen concentration, chronic OVA-induced AAD model; format: in vivo, Balb/c mice; conditions: collagen content/dry weight, OVA alone 3.82±0.10, saline 2.84±0.11
Protocol: as §5, with “OVA. […]” for “OVA.”
The second largest lung lobe from each mouse was processed as previously described (Royce et al. (2009) supra; Royce et al. (2014) supra; Royce et al. (2015) supra) for the measurement of hydroxyproline content, which was determined from a standard curve of purified trans-4-hydroxy-L-proline (Sigma-Aldrich). […]

[7] = tested on: chronic model of ovalbumin (OVA)-induced AAD; assay: Epithelial thickness (Masson's trichrome), chronic OVA-induced AAD model; format: in vivo, Balb/c mice; conditions: relative to BM length; OVA-treated mice; OVA alone 21.20±0.60, saline 16.89±0.76
Protocol: as §5, §6

TGF-β1 = assay: Airway epithelial TGF-β1 immunohistochemistry, chronic OVA-induced AAD model; format: in vivo, Balb/c mice; conditions: relative to saline-treated controls expressed as 1; OVA alone 10.65±0.81
Protocol: (§7) To assess the individual vs combined effects of MSCs, AECs and RLX (serelaxin) in chronic AAD, a chronic model of ovalbumin (OVA)-induced AAD was established in mice (n=36). Mice were sensitized with two i.p. injections of 10 μg of Grade V chicken egg OVA (Sigma-Aldrich, Mo., USA) and 400 μg of aluminium potassium sulphate adjuvant (alum; AJAX Chemicals, NSW, Australia) in 500 μl of 0.9% w/v normal saline solution (Baxter Health Care, NSW, Australia) on day 0 and day 14. […]
(§8) IHC was used to detect TGF-β1 (using a polyclonal antibody; sc-146; Santa Cruz Biotechnology, Santa Cruz, Calif., USA; 1:1000 dilution), α-smooth muscle actin (α-SMA; a marker of myofibroblast differentiation; using a monoclonal antibody; M0851; DAKO Antibodies, Glostrup, Denmark; 1:200 dilution) and thymic stromal lymphopoietin (TSLP; a marker for epithelial damage; using a polyclonal antibody; ABT330; EMD Millipore Corp'. Temecula, Calif., USA; 1:1000 dilution). Primary antibody staining was detected using the DAKO EnVision anti-rabbit or anti-mouse kits and 3,3′-Diaminobenzidine (DAB) chromogen, while negative controls, which were exposed to the EnVision kits in the absence of any primary antibody, were also included. […]

[8] = tested on: chronic model of ovalbumin (OVA)-induced AAD; assay: AHR by invasive plethysmography (methacholine), chronic OVA-induced AAD model; format: in vivo, Balb/c mice; conditions: airway resistance to nebulized methacholine; vs OVA group
Protocol: as §5, with “OVA. […]” for “OVA.”
On day 78 (24 hours after the final intranasal administration of PBS or various treatments detailed), mice were anesthetized with an i.p injection of ketamine 10 mg/kg and xylazine 2 mg/kg BW (in 0.9% w/v saline). […] The airway resistance of each mouse was then measured (reflecting changes in AHR) in response to increasing doses of nebulized acetyl-β-methylcholine chloride (methacholine; Sigma Aldrich, Mo., USA), delivered intratracheally, from 3.125-50 mg/ml over 5 doses, to elicit bronchoconstriction. […]

[9] = tested on: thymic stromal lymphopoietin (TSLP); assay: TSLP immunohistochemistry (epithelial damage), chronic OVA-induced AAD model; format: in vivo, Balb/c mice; conditions: OVA-treated mice; OVA alone 4.61±0.53, saline 1.00±0.30
Protocol: as §7, §8

[10] = tested on: α-SMA-stained myofibroblasts; assay: Subepithelial myofibroblast accumulation (α-SMA IHC), chronic OVA-induced AAD model; format: in vivo, Balb/c mice; conditions: OVA-treated mice; OVA alone 1.72±0.07, saline 0.44±0.13
Protocol: as §7, §8

Row | Compound | bleomycin-induced lung inflammation (inflammation score) [1] | bleomycin-induced increase in interstitial fibrosis [2] | bleomycin-induced increase in subepithelial ECM/collagen deposition [3] | subepithelial collagen (relative to basement membrane length) [4] | peri-bronchial inflammation score [5] | goblet cell count (goblet cells) | total lung collagen concentration [6] | epithelial thickness [7] | epithelial TGF-β1 expression (TGF-β1) | decrease of AHR [8] | number of TSLP-positive cells within the airway epithelium [9] | number of α-SMA-stained myofibroblasts in the subepithelial layer [10]
1 | Cc1ccc(=O)n(-c2ccccc2)c1 [pirfenidone, Pirfenidone] | only partially reduce | normalized | no effect |  |  |  |  |  |  |  |  | 
2 | Serelaxin [RLX] |  |  |  | 18.27±2.26 μm | 1.55±0.83 | 5.08±0.25 goblet cells/100 μm BM length | 3.08±0.23% | 18.19±0.74 μm^2 | 5.85±1.42 | ~50% | 3.14±0.34 per 100 μm of BM length | 1.08±0.10 per 100 μm BM length
